Reference: patent US20210277005A1, “PROANGIOGENIC COMPOSITIONS AND METHODS OF USE” (University of North Dakota, priority 2020, published 2021)
Blank lines part the entries; values can stand above or below the compound they belong to.

Experiments:
[1] = test system: HUVEC cells; assay: Effect of inhibitors/antagonists on the AdSucc-induced Ca2+ response; format: cell-based, human; conditions: for effect on Ca2+ response upon AdSucc treatment: PLC inhibitor / IP3 antagonist
Protocol: (§1) In another example, AdSucc signaling properties were studied. To validate if AdSucc may have a signaling role, the effect of AdSucc on second messenger signaling molecules was studied. […] Our initial data was collected on a plate reader that averages multicellular responses upon AdSucc stimulation. […] To get insights into a mechanism for Ca^2+ release, cells were treated with phospholipase C (PLC) inhibitors U73122 and inositol phosphate triphosphate (IP3) antagonist 2-APB. […] In FIG. 3B, forskolin was used as a positive control (n=5). In FIG. 3C AdSucc is shown to increase cytosolic Ca^2+ in the primary rat brain microvascular endothelia 9b) and HUVEC (c) cells as determined using a plate reader, ATP was used as a positive control.

[2] = test system: mice with transient middle cerebral artery occlusion (MCAO); assay: Stroke model: 45 min transient middle cerebral artery occlusion (MCAO), intranasal treatment; format: in vivo; conditions: AdSucc intranasally 2 h after reperfusion and then every 24 h, 10 μL/animal, 20 mM in PBS; tested 1-7 days post MCAO
Protocol: In an example, Stroke was induced in 3 month old mice with 45 min of transient middle cerebral artery occlusion (MCAO) using an intraluminal filament and performed in a double-blind manner. To correct for edema and necrotic tissue loss, corrected infarct volume was calculated as [(volume of the contralateral hemisphere) minus (volume of the viable tissue in ischemic hemisphere)] after triphenyl tetrazolium chloride (TTC) staining on day 7 post-reperfusion. Following MCAO, a modified neurological deficiency score was used to grade neurological function. A series of motor (muscle status, movement, and balance), sensory (visual, tactile, and proprioceptive) and reflex tests were graded (0—being normal and 18—maximal deficit score) by investigator who was blinded to the experimental groups. Mice were tested 1, 3, 5, and 7 days post MCAO surgery. Deaths were plotted and analyzed as survival probability. Mice were treated with AdSucc intranasally 2 h after reperfusion and then every 24 h (10 μL/animal over 10 min, 20 mM in PBS, pH=7.2). […] FIG. 1A is a graph showing neurological deficiency in the test subjects. In FIG. 1A, higher numbers indicate higher deficiency between saline and AdSucc treated animals at the same test day. […] FIG. 1C is a graph showing representative blood flow rate during MCAO surgery as recorded with a laser Doppler sensor.

[3] = test system: nude mice; assay: In vivo matrigel plaque angiogenesis assay (hemoglobin readout); conditions: AdSucc 0.5 mM in matrigel, s.c. in nude mice, 10 days, n=4
Text: (§2) The pro-angiogenic AdSucc effect in vivo using a matrigel plaque loaded with AdSucc (using hemoglobin readout) or DIVA assay kit also loaded with AdSucc (using endothelial cell quantification with FITC labeled lectin) was also studied (FIG. 4B). In both assays, matrigel was implanted into nude mice (s.c.) for 10 days. […] In addition, in the matrigel assay, the concentration of AdSucc degradation products, SuccAd, was 1000-fold lower than AdSucc, and adenosine was undetectable in the matrigel (FIG. 4C).

[4] = Brain AdSucc concentration after intranasal AdSucc treatment; format: in vivo, mice; conditions: 10 μL/animal over 10 min, 20 mM in PBS, pH=7.2
[5] = test system: nude mice; assay: In vivo DIVA assay kit (endothelial cell quantification with FITC labeled lectin); conditions: AdSucc 0.5 mM loaded, s.c. in nude mice, 10 days, n=4
Text: as §2

[6] = test system: HUVEC cells; assay: Intracellular Ca2+ levels in HUVEC cells (plate reader, single cell imaging); format: cell-based, human
Protocol: as §1

[7] = test system: primary rat microvascular endothelial cells; assay: Intracellular Ca2+ levels in primary rat brain microvascular endothelial cells (plate reader); format: cell-based; conditions: ATP positive control
Protocol: as §1

[8] = test system: HUVEC cells; assay: In vitro sprouting assay on collagen matrix; format: cell-based, human; conditions: 24 h, normoxia; for invasion and sprouting of HUVEC cells: 0.5 mM in collagen matrix, n=4
Protocol: In another example AdSucc's role in angiogenesis was studied. Two different models were used to collect preliminary data in support of AdSucc angiogenic properties. First, an in vitro sprouting assay—a critical step in angiogenesis—was used. HUVEC cells were plated on collagen matrix containing AdSucc, SuccAd, VEGF, or vesicle control for 24 h. For quantification of invaded and sprouted structures, z-stacked images were taking using transmitted light illumination in identical fields following glutaraldehyde fixation and toluidine blue staining. […] The concentrations used (0.5 mM) were in the range found in the brain under low energy conditions.

[9] = test system: HUVEC cells; assay: cAMP levels in endothelial cells; format: cell-based, human; conditions: forskolin positive control
Protocol: as §1

[10] = Matrigel analysis for products of AdSucc degradation upon incubation in vivo; design: species or system mice; conditions: AdSucc loaded matrigel after in vivo incubation, n=3
Text: as §2

SMILES: NCCOB(c1ccccc1)c1ccccc1 [2-APB]
effect on Ca2+ response upon AdSucc treatment ([1]; HUVEC cells, n=5): significantly attenuated

SMILES: O=C(O)C[C@H](Nc1ncnc2c1ncn2[C@@H]1O[C@H](COP(=O)(O)O)[C@@H](O)[C@H]1O)C(=O)O [AdSucc, (2S)-2-({9-[(2R,3R,4S,5R)-3,4-dihydroxy-5-[(phosphonooxy)methyl]oxolan-2-yl]-9H-purin-6-yl}amino)butanedioic acid]
outcome after stroke injury (neurological deficiency score, survival, corrected infarct volume) [2]: significant improvement | angiogenesis in loaded matrigel (hemoglobin) [3]: significantly increased | brain AdSucc concentrations [4]: significantly increased | angiogenesis in DIVA assay (FITC lectin labeled endothelial cells) [5]: significantly increased | Ca2+ increase by single cell Ca2+ imaging ([6]; 2 micromolar Fura, 0 and 100 sec after AdSucc 0.3 mM in PBS): independently confirmed | effect on intracellular Ca2+ levels ([6]; plate reader, AdSucc at the concentration found in the ischemic brain, comparable to ATP treatment): very profound effect | effect on intracellular Ca2+ levels [7]: very profound effect | invasion and sprouting of HUVEC cells [8]: significantly potentiated | invasion and sprouting effect compared to VEGF ([8]; 0.5 mM): higher effect compared to VEGF | effect on cAMP levels [9]: no effect

SMILES: Cc1c(C(=O)Nc2cccc(C(F)(F)F)c2)cc(-c2ccccc2)n1CCCN1CCOCC1 [HC 067047]
effect on AdSucc-induced Ca2+ signaling ([1]; TROV4 antagonist at 0.5 μM): did not affect

SMILES: Cc1cc(N2CCCCC2)nc2ccccc12 [ML 204]
effect on AdSucc-induced Ca2+ signaling ([1]; TRPC 4/5 antagonist at 25 μM): did not affect

SMILES: Cc1nc(N=Nc2ccc(S(=O)(=O)O)cc2S(=O)(=O)O)c(COP(=O)(O)O)c(C=O)c1O [PPADS]
effect on AdSucc-induced Ca2+ response ([1]; non-selective P2 purinergic antagonist, HUVEC cells, n=5): significantly attenuated

concentration of the AdSucc degradation product in the matrigel, relative to AdSucc ([10]; lower than AdSucc): 1000 fold
SMILES: O=C(O)C[C@H](Nc1ncnc2c1ncn2[C@@H]1O[C@H](CO)[C@@H](O)[C@H]1O)C(=O)O [SuccAd, N-(9-β-D-ribofuranosyl-9H-purin-6-yl)-L-aspartic acid]
invasion and sprouting of HUVEC cells [8]: did not have an effect

SMILES: COc1ccc2c(c1)CC[C@@H]1[C@@H]2CC[C@]2(C)[C@@H](NCCCCCCN3C(=O)C=CC3=O)CC[C@@H]12 [U73122]
effect on Ca2+ response upon AdSucc treatment ([1]; HUVEC cells, n=5): significantly attenuated

degradation product level in the matrigel [10]: undetectable
SMILES: Nc1ncnc2c1ncn2[C@@H]1O[C@H](CO)[C@@H](O)[C@H]1O [adenosine]
